Assay results as given in ChEMBL document CHEMBL1201862, “PubChem BioAssay data set” (2004).
Active and inactive are the calls of the source.

How the values were obtained:
[1] = intracellular Trypanosoma cruzi inhibitors in host cells – cell-based, plate reader, cherry-pick samples, set 3, dose response (AID 651818); type: functional;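 further: compounds incubated with infected cells for about four days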
[2] = test system: Streptococcus sp. 'group A'; assay: growth inhibition of control SK(-) GAS strain, dose response, counter-screen for streptokinase expression inhibitor project, luminescence, kanamycin, BacTiterGlo, confirmation (AID 1900); type: functional, organism-based
Streptokinase A = target: T1, Streptokinase A (Streptococcus pyogenes serotype M1, UniProt P10520); assay: S. pyogenes streptokinase expression inhibitors, potency, dose response, plasminogen activation absorbance, OD405 (AID 1914); type: functional, Streptococcus pyogenes M1 GAS;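 further: secreted streptokinase activity via plasminogen activation per viability signal from cell pellet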
T1 sequence (P10520 whole entry): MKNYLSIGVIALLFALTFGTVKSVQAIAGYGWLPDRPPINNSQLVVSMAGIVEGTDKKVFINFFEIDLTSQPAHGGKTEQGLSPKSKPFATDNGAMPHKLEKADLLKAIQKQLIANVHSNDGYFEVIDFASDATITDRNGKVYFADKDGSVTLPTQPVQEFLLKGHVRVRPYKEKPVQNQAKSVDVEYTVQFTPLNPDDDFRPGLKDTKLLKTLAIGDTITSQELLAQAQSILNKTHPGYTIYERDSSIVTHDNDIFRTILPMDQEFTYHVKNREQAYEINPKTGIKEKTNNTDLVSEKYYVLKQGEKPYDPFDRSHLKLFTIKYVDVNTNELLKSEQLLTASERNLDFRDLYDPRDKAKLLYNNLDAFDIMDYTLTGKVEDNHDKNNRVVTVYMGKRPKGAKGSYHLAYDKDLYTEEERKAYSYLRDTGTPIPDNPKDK

Streptococcus = assay: Group A Streptococcus viability loss, dose response, counter-screen for streptokinase expression inhibitor project, luminescence, BacTiterGlo (AID 1915); type: functional, organism-based;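 further: potency for reduction of bacterial viability or growth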
[3] = target: Disintegrin and metalloproteinase domain-containing protein 17 (Homo sapiens, UniProt P78536); assay: ADAM17 protease inhibitors, dose response, counter-screen for ADAM10 exosite inhibitor project, biochemical, quenched FRET substrate (AID 743253)
Vero = assay: cells; type: functional, cell-based; details: Chlorocebus sabaeus
[4] = THP-1 cell cytotoxicity, dose response, cytotoxicity control for non-replicating M. tuberculosis project (AID 489025); type: functional
[5] = Vero E6 cell cytotoxicity, dose response, cytotoxicity control for non-replicating M. tuberculosis project, secondary assay (AID 492998); type: functional, VeroE6; details: Vero C1008
cells = type: functional
[6] = microbe, parasite or virus in culture; type: functional; details: Mycobacterium tuberculosis
[7] = target: T2, Microphthalmia-associated transcription factor (Homo sapiens, UniProt O75030); assay: TRPM1 promoter luciferase signal decrease, dose response, MITF inhibitor project, cell-based, SK-MEL-5, cherry-picked, set 3 (AID 493073); type: functional
T2 sequence (O75030 whole entry): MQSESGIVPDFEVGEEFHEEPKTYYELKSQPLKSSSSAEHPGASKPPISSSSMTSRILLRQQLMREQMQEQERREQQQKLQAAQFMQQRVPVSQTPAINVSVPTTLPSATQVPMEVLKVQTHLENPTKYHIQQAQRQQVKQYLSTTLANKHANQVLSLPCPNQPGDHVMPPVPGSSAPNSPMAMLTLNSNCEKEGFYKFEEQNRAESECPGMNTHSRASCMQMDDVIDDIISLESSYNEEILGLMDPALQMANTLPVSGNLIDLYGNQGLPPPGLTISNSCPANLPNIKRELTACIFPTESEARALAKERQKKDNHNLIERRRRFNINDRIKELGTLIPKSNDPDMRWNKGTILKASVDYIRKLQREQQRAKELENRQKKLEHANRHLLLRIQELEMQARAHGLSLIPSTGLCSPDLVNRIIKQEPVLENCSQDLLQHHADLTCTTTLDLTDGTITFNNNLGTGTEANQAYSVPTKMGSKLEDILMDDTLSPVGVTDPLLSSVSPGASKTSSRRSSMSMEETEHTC

[8] = target: T3, Replicative DNA helicase DnaB (Mycobacterium tuberculosis, UniProt P9WMR3); assay: DnaB intein splicing inhibitors, dose response, biochemical, cell-free fluorescence (AID 449749); type: functional
T3 sequence (P9WMR3 whole entry): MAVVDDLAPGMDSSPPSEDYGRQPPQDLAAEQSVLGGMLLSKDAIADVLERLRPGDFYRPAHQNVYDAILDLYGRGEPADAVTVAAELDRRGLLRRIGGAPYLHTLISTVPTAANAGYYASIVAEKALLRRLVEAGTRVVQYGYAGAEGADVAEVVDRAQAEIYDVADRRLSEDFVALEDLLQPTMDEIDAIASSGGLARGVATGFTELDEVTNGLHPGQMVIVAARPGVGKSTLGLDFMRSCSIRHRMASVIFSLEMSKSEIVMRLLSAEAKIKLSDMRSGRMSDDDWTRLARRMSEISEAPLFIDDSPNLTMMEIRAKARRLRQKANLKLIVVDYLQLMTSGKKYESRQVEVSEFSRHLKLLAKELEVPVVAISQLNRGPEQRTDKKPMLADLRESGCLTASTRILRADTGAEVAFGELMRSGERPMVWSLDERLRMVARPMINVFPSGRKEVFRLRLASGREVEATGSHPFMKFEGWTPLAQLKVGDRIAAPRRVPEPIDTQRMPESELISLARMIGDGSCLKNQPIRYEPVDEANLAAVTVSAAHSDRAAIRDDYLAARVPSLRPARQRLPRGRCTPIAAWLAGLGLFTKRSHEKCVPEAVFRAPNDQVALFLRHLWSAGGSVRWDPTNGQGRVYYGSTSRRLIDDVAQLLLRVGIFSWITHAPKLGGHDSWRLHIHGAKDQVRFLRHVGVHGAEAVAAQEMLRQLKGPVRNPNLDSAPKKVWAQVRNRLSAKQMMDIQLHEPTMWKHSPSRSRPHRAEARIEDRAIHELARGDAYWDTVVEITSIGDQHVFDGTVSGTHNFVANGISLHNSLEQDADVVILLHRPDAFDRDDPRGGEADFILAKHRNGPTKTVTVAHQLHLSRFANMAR

Protein RecA = target: T4, Protein RecA (Mycobacterium tuberculosis, UniProt P9WHJ3); assay: Fluorescence Cell-Free Homogeneous Dose Retest to Identify Inhibitors of RecA-Intein Splicing Activity. [Related pubchem assays (depositor defined):AID2097, AID2223, AID489010, AID492950]; type: functional
T4 sequence (P9WHJ3 whole entry): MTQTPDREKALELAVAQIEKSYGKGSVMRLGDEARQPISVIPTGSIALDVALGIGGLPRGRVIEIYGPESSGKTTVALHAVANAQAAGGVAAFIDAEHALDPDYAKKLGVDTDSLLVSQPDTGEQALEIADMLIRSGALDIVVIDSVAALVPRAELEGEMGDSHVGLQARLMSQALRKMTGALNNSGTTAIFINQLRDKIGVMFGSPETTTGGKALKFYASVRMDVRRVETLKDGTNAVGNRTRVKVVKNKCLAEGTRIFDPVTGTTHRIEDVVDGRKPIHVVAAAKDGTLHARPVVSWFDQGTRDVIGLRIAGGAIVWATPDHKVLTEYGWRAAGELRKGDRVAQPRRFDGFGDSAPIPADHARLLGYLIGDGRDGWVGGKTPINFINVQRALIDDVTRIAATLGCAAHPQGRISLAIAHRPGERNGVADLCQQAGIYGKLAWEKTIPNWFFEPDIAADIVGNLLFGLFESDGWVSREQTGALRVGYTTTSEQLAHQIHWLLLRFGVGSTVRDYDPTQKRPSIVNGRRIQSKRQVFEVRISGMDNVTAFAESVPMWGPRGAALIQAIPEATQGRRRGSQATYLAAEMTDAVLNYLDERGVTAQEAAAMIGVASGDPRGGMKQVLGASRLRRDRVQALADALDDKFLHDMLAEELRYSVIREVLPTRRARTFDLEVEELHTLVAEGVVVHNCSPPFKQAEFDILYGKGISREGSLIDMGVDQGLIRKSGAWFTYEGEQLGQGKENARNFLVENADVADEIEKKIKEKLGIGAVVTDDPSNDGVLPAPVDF

[9] = inhibitors of HIV Env-driven cell fusion, dose response, cherry-pick (AID 652057); type: functional, cell-based
[10] = ZM109 Env clade C HIV-1 fusion inhibitors, dose response, HeLa effector, CEM target cells, luciferase, cherry-pick (AID 652058); type: functional, cell-based
[11] = off-target signal loss in HeLa-CEM21 co-culture – HeLa F-luc CTL cells, cherry-picked, counter-screen for HIV-1 Env fusion inhibitor project, dose response (AID 652040); type: functional, cell-based;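 further: potency for signal decrease marking cytotoxic or nonspecific inhibition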
[12] = inhibitors of clade B AD8 Env fusion, dose response, cell-based, cherry-pick (AID 652062); type: functional;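 further: luciferase signal from cell-cell fusion driven by HIV-1 clade B AD8 Env; potency is for inhibitors of fusion seen as a drop in luminescence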
P388/ADR = assay: cells; type: functional; details: Mus musculus
SN12K1 = assay: cells; type: functional; details: Homo sapiens
P388 = assay: cells; type: functional; details: Mus musculus

Chain of Disintegrin and metalloproteinase domain-containing protein 17 (P78536 whole entry, the tested form may be a part): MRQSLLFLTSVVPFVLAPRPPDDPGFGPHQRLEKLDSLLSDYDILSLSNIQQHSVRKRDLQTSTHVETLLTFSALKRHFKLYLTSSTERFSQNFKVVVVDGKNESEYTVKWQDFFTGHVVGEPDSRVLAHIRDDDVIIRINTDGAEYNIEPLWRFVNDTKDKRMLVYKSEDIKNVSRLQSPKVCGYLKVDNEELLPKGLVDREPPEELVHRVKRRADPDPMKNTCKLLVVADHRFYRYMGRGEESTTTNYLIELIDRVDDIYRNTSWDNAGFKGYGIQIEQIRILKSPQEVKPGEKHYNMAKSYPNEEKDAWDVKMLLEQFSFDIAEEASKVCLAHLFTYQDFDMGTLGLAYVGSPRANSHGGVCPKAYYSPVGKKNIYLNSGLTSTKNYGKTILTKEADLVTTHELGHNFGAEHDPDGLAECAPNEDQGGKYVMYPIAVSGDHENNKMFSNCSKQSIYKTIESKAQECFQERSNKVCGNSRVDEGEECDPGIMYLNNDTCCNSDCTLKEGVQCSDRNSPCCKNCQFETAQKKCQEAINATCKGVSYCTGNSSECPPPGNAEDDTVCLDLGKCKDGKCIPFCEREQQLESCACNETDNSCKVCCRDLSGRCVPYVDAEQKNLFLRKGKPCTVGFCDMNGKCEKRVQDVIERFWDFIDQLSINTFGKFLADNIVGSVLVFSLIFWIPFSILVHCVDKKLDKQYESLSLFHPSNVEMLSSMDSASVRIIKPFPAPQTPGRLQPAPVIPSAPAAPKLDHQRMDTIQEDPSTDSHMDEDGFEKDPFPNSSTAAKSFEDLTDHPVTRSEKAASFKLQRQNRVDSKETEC

C[C@H](CO)N1C[C@H](C)[C@@H](CN(C)Cc2ccc(Oc3ccccc3)cc2)Oc2c(NS(=O)(=O)c3ccc(Cl)cc3)cccc2C1=O
AC50 [1]: 3.36 µM (active)

O=C(OCc1csc(Nc2ccccc2)n1)c1ccc(Cl)cc1
EC50 [2]: 12.8 µM (active)
EC50 (Streptokinase A): 34.2 µM (active)
EC50 (Streptococcus): > 150 µM (not active)
IC50 [3]: > 69.5 µM (inactive)

C[C@@H]1CN([C@H](C)CO)C(=O)Cc2cc(NC(=O)Nc3cccc4ccccc34)ccc2O[C@H]1CN(C)Cc1ccc(C(F)(F)F)cc1
AC50 [1]: 3.46 µM (active)

CCc1ccc(-c2cc3c(=O)n(CC(=O)NCCCN4CCN(CC)CC4)nc(C)n3n2)cc1
IC50 (Vero): > 25 µM (active)

Cc1cccc(-c2nnc3sc(-c4ccccc4C)nn23)c1
CC50 [4]: 39 µM (active)
CC50 [5]: > 20 µM (active)
IC50 (cells): 34.6 µM (active)

Cc1ccc(NC(=O)CCl)cc1S(=O)(=O)N1CCCCCC1
CC50 [6]: 6.13 µM (active)
AC50 [7]: 7.55 µM (active)
AC50 [8]: 14.7 µM (active)
EC50 (Protein RecA): 3.67 µM (active)

Cc1cc(C)n2nc(NCc3cccc(Br)c3)nc2n1
AC50 [9]: 7.45 µM (active)
AC50 [10]: 7.3 µM (active)
AC50 [11]: 7.14 µM (active)
AC50 [12]: 2.92 µM (active)

CNC(=O)C(C)C1CCC2(C)C=CC(=O)C(C)=C2C1O (stereo not drawn)
GI50 (P388/ADR): > 100 µM (inactive)
GI50 (SN12K1): > 100 µM (inactive)
GI50 (P388): > 100 µM (inactive)

COc1cc(C2c3cc4c(cc3[C@@H](Oc3ccc(F)cc3)C3COC(=O)[C@H]23)OCO4)cc(OC)c1O (stereo partly drawn)
GI50 (P388/ADR): 0.354 µM (active)
GI50 (SN12K1): 0.31 µM (active)
GI50 (P388): 0.327 µM (active)

COc1cc(/C=C/C(=O)O)ccc1C(=O)OCc1ccccc1
GI50 (P388/ADR): > 100 µM (inactive)
GI50 (SN12K1): > 100 µM (inactive)
GI50 (P388): > 100 µM (inactive)

COCCN=C(S)NCc1ccc2[nH]c3c(c2c1)CCCC3
IC50 (Vero): 23.6 µM (active)
